According to patent US20160201063A1, “EPIGENETIC REGULATORS OF FRATAXIN” (RANA THERAPEUTICS, INC., priority 2013, published 2016):
Structures can show the parent of a compound that is named as a salt.

Tests used:
FXN mRNA [1] = experiment: Screen of library of eighty epigenetic inhibitors in GM03816 FRDA diseased fibroblasts, FXN mRNA fold change; format: cell-based, human; settings: for fold induction at 1 µM / fold induction at 5 µM: Homo sapiens, Fibroblast, 72 h; for fold induction at 1 µM: read-out: 3816 1 uM (FXN mRNA fold change); for fold induction at 5 µM: read-out: 3816 5 uM (FXN mRNA fold change)
Method: FXN RNA levels are indicated on the y-axis and the inhibitors used at both 1 μM and 5 μM are shown on the x-axis.
A screen of a library of eighty epigenetic inhibitors (Cayman Chemical) was performed in GM03816 FRDA fibroblasts to identify epigenetic regulators that upregulate FXN expression.

FXN mRNA [2] = experiment: Screen of epigenetic inhibitors in GM0321 normal fibroblasts, FXN RNA levels; format: cell-based, human; settings: for fold induction at 1 µM / fold induction at 5 µM: Homo sapiens, Fibroblast, 72 h; for fold induction at 1 µM: read-out: FXN mRNA fold change, 321B 1 uM; for fold induction at 5 µM: read-out: FXN mRNA fold change, 321B 5 uM
[3] = GM03816 FRDA diseased fibroblasts, 1 uM inhibitor, 3 days of treatment
[4] = GM03816 FRDA diseased fibroblasts, 5 uM inhibitor, 3 days of treatment
[5] = GM0321 normal fibroblasts, 1 uM inhibitor, 3 days of treatment
[6] = GM0321 normal fibroblasts, 5 uM inhibitor, 3 days of treatment

SMILES | 3816 1 uM (FXN mRNA fold change) (FXN mRNA [1]; [3]) | 3816 5 uM (FXN mRNA fold change) (FXN mRNA [1]; [4]) | FXN mRNA fold change, 321B 1 uM (FXN mRNA [2]; [5]) | FXN mRNA fold change, 321B 5 uM (FXN mRNA [2]; [6]) | also measured
Cl.N[C@@H]1C[C@H]1c1ccccc1 (racemic) [2-PCPA (hydrochloride)] | 1.058 | 0.8786 | 0.7149 | 0.7888 | –
O=C(O)c1cccc2ccccc12 [1-Naphthoic Acid] | – | – | – | – | fold induction at 1 µM (FXN mRNA [1]; [3]): 1.05; fold induction at 5 µM (FXN mRNA [1]; [4]): 0.869; fold induction at 1 µM (FXN mRNA [2]; [5]): 0.819; fold induction at 5 µM (FXN mRNA [2]; [6]): 0.72
CCOC(=O)c1ccnc(C(=O)OCC)c1 [2,4-DPD] | 1.179 | 0.9456 | 0.877 | 0.7372 | –
O=C(O)c1ccnc(C(=O)O)c1 [2,4-Pyridinedicarboxylic Acid] | – | – | – | – | fold induction at 1 µM (FXN mRNA [1]; [3]): 0.885; fold induction at 5 µM (FXN mRNA [1]; [4]): 0.888; fold induction at 1 µM (FXN mRNA [2]; [5]): 0.458; fold induction at 5 µM (FXN mRNA [2]; [6]): 0.645
Nc1nccc2c1ncn2C1C=C(CO)C(O)C1O (stereo not shown) [3-Deazaneplanocin A] | 0.1514 | 0.2102 | 0.2641 | 0.1265 | –
NC(=O)c1cccc(N)c1 [3-amino Benzamide] | 1.289 | 1.357 | 1.089 | 1.365 | –
CC(C)[C@H](C(=O)Nc1ccc(C(=O)NO)cc1)c1ccccc1 [(S)-HDAC-42] | 0.2419 | 0.1894 | – | 0.6941 | –
CNCc1ccc(-c2[nH]c3cc(F)cc4c3c2CCNC4=O)cc1 [AG-014699] | – | – | – | – | fold induction at 1 µM (FXN mRNA [1]; [3]): 1.06; fold induction at 5 µM (FXN mRNA [1]; [4]): 0.892; fold induction at 1 µM (FXN mRNA [2]; [5]): 0.895; fold induction at 5 µM (FXN mRNA [2]; [6]): 1
N#C/C(=C\c1ccc(-c2cc(Cl)ccc2Cl)o1)C(=O)Nc1cccc2ncccc12 [AGK2] | 1.206 | 1.101 | 1.115 | 1.053 | –
O=C(Nc1ccc2c(O)cc(S(=O)(=O)O)cc2c1)Nc1ccc2c(O)cc(S(=O)(=O)O)cc2c1 [AMI-1] | 0.5579 | 0.566 | – | 0.4073 | –
CCC(=O)CCCCC[C@@H]1NC(=O)[C@H]2CCCCN2C(=O)[C@H]([C@@H](C)CC)NC(=O)[C@H](Cc2cn(OC)c3ccccc23)NC1=O [Apicidin] | – | – | – | – | fold induction at 1 µM (FXN mRNA [1]): 0.0791; fold induction at 5 µM (FXN mRNA [1]): 0.435; fold induction at 1 µM (FXN mRNA [2]): 0.119; fold induction at 5 µM (FXN mRNA [2]): 0.397
NC(=O)c1ccc(I)c([N+](=O)[O-])c1 [BSI-201] | – | – | – | – | fold induction at 1 µM (FXN mRNA [1]; [3]): 1.13; fold induction at 5 µM (FXN mRNA [1]; [4]): 0.844; fold induction at 1 µM (FXN mRNA [2]; [5]): 1.03; fold induction at 5 µM (FXN mRNA [2]; [6]): 0.985
CN(C)c1ccc(C(=O)NCCCCCC(=O)NO)cc1 [CAY10398] | 0.6921 | 0.2339 | 0.5049 | 0.2106 | –
Nc1ccccc1NC(=O)CCCCCCC(=O)Nc1ccccc1 [CAY10433] | 0.8309 | 0.8827 | 1.03 | 0.7782 | –
COCCCn1c(N)c(C(=O)NC2CCCC2)c2nc3ccccc3nc21 [CAY10591] | 1.311 | 1.377 | 0.9828 | 1.437 | –
CC(C)(C)OC(=O)Nc1ccc(-c2cc(C(=O)NCCCCCCC(=O)NO)no2)cc1 [CAY10603] | 0.5205 | 0.07004 | 0.3592 | – | –
CCCCCOc1ccc(/C=C\c2cccc(O)c2C(=O)O)cc1 [CAY10669] | 0.8709 | 1.074 | 0.7796 | 0.3094 | –

SMILES | 3816 1 uM (FXN mRNA fold change) (FXN mRNA [1]; [3]) | 3816 5 uM (FXN mRNA fold change) (FXN mRNA [1]; [4]) | FXN mRNA fold change, 321B 1 uM (FXN mRNA [2]; [5]) | FXN mRNA fold change, 321B 5 uM (FXN mRNA [2]; [6]) | also measured
O=C(/C=C/c1cccc(C(=O)NO)c1)NO [CBHA] | 0.4678 | 0.1327 | 0.7208 | 0.4875 | –
O=C(Nc1ccc(Cl)cc1)C1CCCN(C(=O)c2cc(C(F)(F)F)cc(C(F)(F)F)c2)C1 (stereo not shown) [CCG-100602] | 1.147 | 1.213 | 0.8325 | 0.9592 | –
Nc1cc(F)ccc1NC(=O)c1ccc(CNC(=O)/C=C/c2cccnc2)cc1 [Chidamide] | – | – | – | – | fold induction at 1 µM (FXN mRNA [1]; [3]): 0.924; fold induction at 5 µM (FXN mRNA [1]; [4]): 0.968; fold induction at 1 µM (FXN mRNA [2]; [5]): 0.835; fold induction at 5 µM (FXN mRNA [2]; [6]): 0.799
NC(=O)[C@H](CCCN=C(N)CCl)NC(=O)c1ccccc1 [Cl-Amidine] | 1.153 | 0.9028 | 0.9432 | 0.9931 | –
COC(=O)CNC(=O)C(=O)OC [DMOG] | 0.9685 | 0.9131 | 0.7317 | 0.9433 | –
CN(C)NC(=O)CCC(=O)O [Daminozide] | – | – | – | – | fold induction at 1 µM (FXN mRNA [1]): 0.824; fold induction at 5 µM (FXN mRNA [1]): 0.881; fold induction at 1 µM (FXN mRNA [2]): 1.04; fold induction at 5 µM (FXN mRNA [2]): 0.898
Nc1ncn([C@H]2C[C@H](O)[C@@H](CO)O2)c(=O)n1 [Decitabine] | – | – | – | – | fold induction at 1 µM (FXN mRNA [2]; [5]): 1.15; fold induction at 5 µM (FXN mRNA [2]; [6]): 1.53
Oc1cc(O)c2cc(O)c(-c3cc(O)c(O)c(O)c3)[o+]c2c1 [Delphinidin chloride] | – | – | – | – | fold induction at 1 µM (FXN mRNA [1]; [3]): 0.954; fold induction at 5 µM (FXN mRNA [1]; [4]): 0.885; fold induction at 1 µM (FXN mRNA [2]; [5]): 1.09; fold induction at 5 µM (FXN mRNA [2]; [6]): 1.04
O=c1oc2c(O)c(O)cc3c(=O)oc4c(O)c(O)cc1c4c23 [Ellagic Acid] | – | – | – | – | fold induction at 1 µM (FXN mRNA [1]; [3]): 0.788; fold induction at 5 µM (FXN mRNA [1]; [4]): 0.189; fold induction at 1 µM (FXN mRNA [2]; [5]): 0.675; fold induction at 5 µM (FXN mRNA [2]; [6]): 0.248
NC(=O)[C@H](CCCN=C(N)CF)NC(=O)c1ccccc1 [F-Amidine] | 0.7818 | 0.6484 | 0.9152 | 0.9697 | –
O=C(O)CCNc1cc(N2CCc3ccccc3CC2)nc(-c2ccccn2)n1 [GSK-J1 (sodium salt)] | 0.8866 | 0.7892 | 0.9779 | 0.9423 | –
O=C(O)CCNc1cc(N2CCc3ccccc3CC2)nc(-c2cccnc2)n1 [GSK-J2 (sodium salt)] | 0.9711 | 0.9938 | 1.063 | – | –
CCOC(=O)CCNc1cc(N2CCc3ccccc3CC2)nc(-c2ccccn2)n1.Cl [GSK-J4 (hydrochloride)] | 0.927 | 0.8762 | 1.002 | 0.8744 | –
Nc1nc(OCc2cc(Br)cs2)c2[nH]cnc2n1 [Lomeguatrib] | – | – | – | – | fold induction at 1 µM (FXN mRNA [2]; [5]): 1.05; fold induction at 5 µM (FXN mRNA [2]; [6]): 1.28
CN(C)CCCCC(=O)Nc1ccc(NC(=S)NC(=O)c2ccc(C(C)(C)C)cc2)cc1 [Tenovin-6] | – | – | 1.23 | 1.282 | –
O=C(c1ccc(C(=O)N2CCC(N3CCCC3)CC2)c(Nc2ccccc2)c1)N1CCC(N2CCCC2)CC1 [UNC1215] | 0.6911 | 0.8743 | – | – | –
CC(=O)Nc1ccc(NC(=S)NC(=O)c2ccc(C(C)(C)C)cc2)cc1 [tenovin-1] | – | – | 1.444 | – | –
